Experimental data taken from ChEMBL document CHEMBL1201862, “PubChem BioAssay data set” (2004).
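Compound exposure: 48 hours, 5 concentrations, 96-well plates. GI50 marks 50% less growth.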 The source made the active and inactive calls. Rule as the data show it: active = GI50 up to about 1.1 µM and inactive = higher.

How the values were obtained:
Test in all cases: inhibition of tumour cell growth, NCI panel, 48 h
786-0 = test system: 786-0
A498 = test system: A498
A549 = test system: A549
ACHN = test system: ACHN
BT-549 = test system: BT-549
CAKI-1 = test system: CAKI-1
CCRF-CEM = test system: CCRF-CEM
COLO 205 = test system: COLO 205
DLD-1 = test system: DLD-1
DMS-114 = test system: DMS-114
DMS-273 = test system: DMS-273
DU-145 = test system: DU-145
EKVX = test system: EKVX
HCC 2998 = test system: HCC 2998
HCT-116 = test system: HCT-116
HCT-15 = test system: HCT-15
HL-60 = test system: HL-60
HOP-18 = test system: HOP-18
HOP-62 = test system: HOP-62
HOP-92 = test system: HOP-92
HT-29 = test system: HT-29
Hs-578T = test system: Hs-578T
IGROV-1 = test system: IGROV-1
K562 = test system: K562
KM-20L2 = test system: KM-20L2
KM12 = test system: KM12
LOX IMVI = test system: LOX IMVI
M14 = test system: M14
M19-MEL = test system: M19-MEL
MCF7 = test system: MCF7
MDA-MB-231 = test system: MDA-MB-231
MDA-MB-435 = test system: MDA-MB-435
MDA-N = test system: MDA-N
MOLT-4 = test system: MOLT-4
Malme-3M = test system: Malme-3M
NCI-H226 = test system: NCI-H226
NCI-H23 = test system: NCI-H23
NCI-H460 = test system: NCI-H460
NCI-H522 = test system: NCI-H522
NCI/ADR-RES = test system: NCI/ADR-RES
OVCAR-3 = test system: OVCAR-3
OVCAR-4 = test system: OVCAR-4
OVCAR-5 = test system: OVCAR-5
OVCAR-8 = test system: OVCAR-8
PC-3 = test system: PC-3
RPMI-8226 = test system: RPMI-8226
RXF 393 = test system: RXF 393
SF-268 = test system: SF-268
SF-295 = test system: SF-295
SF-539 = test system: SF-539
SK-MEL-28 = test system: SK-MEL-28
SK-MEL-2 = test system: SK-MEL-2
SK-MEL-5 = test system: SK-MEL-5
SK-OV-3 = test system: SK-OV-3
SN12C = test system: SN12C
SNB-19 = test system: SNB-19
SNB-75 = test system: SNB-75
SNB-78 = test system: SNB-78
SR = test system: SR
SW-620 = test system: SW-620
T47D = test system: T47D
TK-10 = test system: TK-10
U-251 = test system: U-251
UACC-257 = test system: UACC-257
UACC-62 = test system: UACC-62
UO-31 = test system: UO-31
XF498 = test system: XF498

O=C(Cn1ccnc1[N+](=O)[O-])N(CCO)CCO
GI50 (786-0): > 250 µM (inactive)
GI50 (A498): > 1250 µM (inactive)
GI50 (A549): > 250 µM (inactive)
GI50 (ACHN): > 250 µM (inactive)
GI50 (BT-549): > 250 µM (inactive)
GI50 (CAKI-1): > 250 µM (inactive)
GI50 (CCRF-CEM): > 250 µM (inactive)
GI50 (COLO 205): > 1250 µM (inactive)
GI50 (DLD-1): > 1250 µM (inactive)
GI50 (DMS-114): > 1250 µM (inactive)
GI50 (DMS-273): > 1250 µM (inactive)
GI50 (DU-145): > 250 µM (inactive)
GI50 (EKVX): > 250 µM (inactive)
GI50 (HCC 2998): > 250 µM (inactive)
GI50 (HCT-116): > 250 µM (inactive)
GI50 (HCT-15): > 250 µM
GI50 (HL-60): > 250 µM (inactive)
GI50 (HOP-18): > 1250 µM (inactive)
GI50 (HOP-62): > 250 µM (inactive)
GI50 (HOP-92): > 1250 µM (inactive)
GI50 (HT-29): > 250 µM (inactive)
GI50 (Hs-578T): > 250 µM (inactive)
GI50 (IGROV-1): > 250 µM (inactive)
GI50 (K562): > 250 µM (inactive)
GI50 (KM-20L2): > 1250 µM (inactive)
GI50 (KM12): > 250 µM (inactive)
GI50 (LOX IMVI): > 1250 µM (inactive)
GI50 (M14): > 250 µM (inactive)
GI50 (M19-MEL): > 1250 µM (inactive)
GI50 (MCF7): > 1250 µM (inactive)
GI50 (MDA-MB-231): > 250 µM (inactive)
GI50 (MDA-MB-435): > 250 µM (inactive)
GI50 (MDA-N): > 250 µM (inactive)
GI50 (MOLT-4): > 250 µM (inactive)
GI50 (Malme-3M): 135 µM (inactive)
GI50 (NCI-H226): > 250 µM (inactive)
GI50 (NCI-H23): > 250 µM (inactive)
GI50 (NCI-H460): > 1250 µM (inactive)
GI50 (NCI-H522): > 250 µM (inactive)
GI50 (NCI/ADR-RES): > 250 µM (inactive)
GI50 (OVCAR-3): > 250 µM (inactive)
GI50 (OVCAR-4): > 250 µM (inactive)
GI50 (OVCAR-5): > 250 µM (inactive)
GI50 (OVCAR-8): > 250 µM (inactive)
GI50 (PC-3): > 250 µM (inactive)
GI50 (RPMI-8226): 25 µM (inactive)
GI50 (RXF 393): > 250 µM (inactive)
GI50 (SF-268): > 250 µM (inactive)
GI50 (SF-295): > 250 µM (inactive)
GI50 (SF-539): > 250 µM (inactive)
GI50 (SK-MEL-28): > 250 µM (inactive)
GI50 (SK-MEL-2): 191 µM (inactive)
GI50 (SK-MEL-5): > 141 µM (inactive)
GI50 (SK-OV-3): > 250 µM (inactive)
GI50 (SN12C): > 250 µM (inactive)
GI50 (SNB-19): > 250 µM (inactive)
GI50 (SNB-75): > 1250 µM (inactive)
GI50 (SNB-78): > 1250 µM (inactive)
GI50 (SR): > 79.1 µM (inactive)
GI50 (SW-620): > 250 µM (inactive)
GI50 (T47D): > 250 µM (inactive)
GI50 (TK-10): > 250 µM (inactive)
GI50 (U-251): > 250 µM (inactive)
GI50 (UACC-257): > 250 µM (inactive)
GI50 (UACC-62): > 250 µM (inactive)
GI50 (UO-31): > 250 µM (inactive)
GI50 (XF498): > 58.1 µM (inactive)

O=NN(CCF)C(=O)NC1CC2CCC1C2 (stereo not drawn)
GI50 (A498): > 100 µM (inactive)
GI50 (A549): > 100 µM (inactive)
GI50 (CAKI-1): > 100 µM (inactive)
GI50 (CCRF-CEM): 38.3 µM (inactive)
GI50 (COLO 205): > 100 µM (inactive)
GI50 (DLD-1): > 87.7 µM (inactive)
GI50 (DMS-114): > 100 µM (inactive)
GI50 (DMS-273): > 100 µM (inactive)
GI50 (EKVX): > 100 µM (inactive)
GI50 (HCC 2998): > 100 µM (inactive)
GI50 (HCT-116): > 100 µM (inactive)
GI50 (HCT-15): > 74.3 µM
GI50 (HL-60): 38.7 µM (inactive)
GI50 (HOP-18): > 100 µM (inactive)
GI50 (HOP-62): > 84.1 µM (inactive)
GI50 (HOP-92): > 100 µM (inactive)
GI50 (HT-29): > 100 µM (inactive)
GI50 (IGROV-1): > 72.9 µM (inactive)
GI50 (K562): > 53 µM (inactive)
GI50 (KM-20L2): > 100 µM (inactive)
GI50 (KM12): > 100 µM (inactive)
GI50 (LOX IMVI): 84.7 µM (inactive)
GI50 (M19-MEL): > 100 µM (inactive)
GI50 (MCF7): 98.9 µM (inactive)
GI50 (MOLT-4): > 100 µM (inactive)
GI50 (Malme-3M): > 100 µM (inactive)
GI50 (NCI-H23): > 100 µM (inactive)
GI50 (NCI-H460): > 100 µM (inactive)
GI50 (NCI-H522): 73.6 µM (inactive)
GI50 (NCI/ADR-RES): > 100 µM (inactive)
GI50 (OVCAR-3): > 100 µM (inactive)
GI50 (OVCAR-4): > 100 µM (inactive)
GI50 (OVCAR-5): > 100 µM (inactive)
GI50 (OVCAR-8): > 100 µM (inactive)
GI50 (RPMI-8226): > 54.3 µM (inactive)
GI50 (RXF 393): > 100 µM (inactive)
GI50 (SF-268): > 100 µM (inactive)
GI50 (SF-295): > 100 µM (inactive)
GI50 (SF-539): > 100 µM (inactive)
GI50 (SK-MEL-28): > 100 µM (inactive)
GI50 (SK-MEL-2): > 100 µM (inactive)
GI50 (SK-MEL-5): > 100 µM (inactive)
GI50 (SK-OV-3): > 100 µM (inactive)
GI50 (SN12C): > 100 µM (inactive)
GI50 (SNB-19): > 100 µM (inactive)
GI50 (SNB-75): > 100 µM (inactive)
GI50 (SNB-78): > 100 µM (inactive)
GI50 (SW-620): > 100 µM (inactive)
GI50 (U-251): > 100 µM (inactive)
GI50 (UACC-257): > 100 µM (inactive)
GI50 (UACC-62): 86.9 µM (inactive)
GI50 (UO-31): > 100 µM (inactive)
GI50 (XF498): < 0.01 µM (active)

CCOC(=O)C1=C(C(C)=O)CSC(c2ccccc2)=N1
GI50 (A498): > 100 µM (inactive)
GI50 (A549): > 100 µM (inactive)
GI50 (CAKI-1): > 100 µM (inactive)
GI50 (CCRF-CEM): > 100 µM (inactive)
GI50 (COLO 205): > 100 µM (inactive)
GI50 (DLD-1): > 100 µM (inactive)
GI50 (DMS-114): > 100 µM (inactive)
GI50 (DMS-273): > 100 µM (inactive)
GI50 (EKVX): > 100 µM (inactive)
GI50 (HCC 2998): > 100 µM (inactive)
GI50 (HCT-116): > 100 µM (inactive)
GI50 (HCT-15): > 100 µM
GI50 (HL-60): > 100 µM (inactive)
GI50 (HOP-18): > 100 µM (inactive)
GI50 (HOP-92): > 100 µM (inactive)
GI50 (HT-29): > 100 µM (inactive)
GI50 (IGROV-1): > 100 µM (inactive)
GI50 (K562): > 100 µM (inactive)
GI50 (KM-20L2): > 100 µM (inactive)
GI50 (KM12): > 100 µM (inactive)
GI50 (LOX IMVI): > 100 µM (inactive)
GI50 (M19-MEL): > 100 µM (inactive)
GI50 (MCF7): 40.7 µM (inactive)
GI50 (MOLT-4): > 100 µM (inactive)
GI50 (Malme-3M): > 100 µM (inactive)
GI50 (NCI-H226): > 89.7 µM (inactive)
GI50 (NCI-H23): 98.4 µM (inactive)
GI50 (NCI-H460): > 100 µM (inactive)
GI50 (NCI-H522): > 100 µM (inactive)
GI50 (NCI/ADR-RES): > 100 µM (inactive)
GI50 (OVCAR-3): > 100 µM (inactive)
GI50 (OVCAR-4): > 100 µM (inactive)
GI50 (OVCAR-5): > 100 µM (inactive)
GI50 (OVCAR-8): > 100 µM (inactive)
GI50 (RPMI-8226): > 100 µM (inactive)
GI50 (RXF 393): > 100 µM (inactive)
GI50 (SF-268): > 100 µM (inactive)
GI50 (SF-295): > 100 µM (inactive)
GI50 (SF-539): > 100 µM (inactive)
GI50 (SK-MEL-28): > 100 µM (inactive)
GI50 (SK-MEL-2): > 100 µM (inactive)
GI50 (SK-MEL-5): > 100 µM (inactive)
GI50 (SK-OV-3): > 100 µM (inactive)
GI50 (SN12C): > 100 µM (inactive)
GI50 (SNB-19): > 100 µM (inactive)
GI50 (SNB-75): > 100 µM (inactive)
GI50 (SNB-78): > 63.2 µM (inactive)
GI50 (SW-620): > 100 µM (inactive)
GI50 (U-251): > 100 µM (inactive)
GI50 (UACC-257): > 100 µM (inactive)
GI50 (UACC-62): > 100 µM (inactive)
GI50 (UO-31): 97.9 µM (inactive)
GI50 (XF498): > 100 µM (inactive)
